Each block holds one molecule with its values, some of them ahead of it. Activity calls are given as the source filed them. No cut-off for these calls is given here.
Legend:
[1] = Cytotoxicity against mouse RAW264.7 cells assessed as cell viability at 5 uM measured after 24 hrs incubation by MTT assay relative to control; format: toxicity, cell-based; settings: read-out: Activity
RAW264.7 [2] = assay: Anti-inflammatory activity against mouse RAW264.7 cells assessed as inhibition of LPS-induced TNFalpha level pretreated for 1 hr followed by induced with LPS measured after 24 hrs by ELISA; format: functional, cell-based; settings: dose 2.5-20 µM, time 25.0 hrs
RAW264.7 [3] = assay: Anti-inflammatory activity against mouse RAW264.7 cells assessed as inhibition of LPS-induced NO production measured after 24 hrs incubation by Griess assay; format: functional, cell-based; settings: RAW264.7, 24 h
RAW264.7 [4] = assay: Anti-inflammatory activity against mouse RAW264.7 cells assessed as inhibition of LPS-induced COX2 level pretreated for 1 hr followed by induced with LPS measured after 24 hrs by ELISA; format: functional, cell-based; settings: dose 2.5-20 µM, time 25.0 hrs
RAW264.7 [5] = assay: Anti-inflammatory activity against mouse RAW264.7 cells assessed as inhibition of LPS-induced NO production at 5 uM measured after 24 hrs incubation by Griess assay relative to control; format: functional
RAW264.7 [6] = assay: Anti-inflammatory activity against mouse RAW264.7 cells assessed as inhibition of LPS-induced COX2 level pretreated for 1 hr followed by induced with LPS measured after 24 hrs by Western blot analysis; format: functional, cell-based; settings: dose 2.5-10 µM, time 25.0 hrs
RAW264.7 [7] = assay: Anti-inflammatory activity against mouse RAW264.7 cells assessed as inhibition of LPS-induced TNFalpha level at 2.5 uM pretreated for 1 hr followed by induced with LPS measured after 24 hrs by ELISA (reference value: 0.61 ng/ml); format: functional; settings: time 25 hrs
BV-2 = assay: Anti-inflammatory activity against […] assessed as inhibition of LPS-induced NO production at 2.5 to 20 uM measured after 24 hrs incubation by Griess assay; format: functional, cell-based; settings: dose 2.5-20 µM
RAW264.7 [8] = assay: Inhibition of LPS-induced translocation of NFkappaB p65 heterodimer into nucleus in mouse RAW264.7 cells at 2.5 to 10 uM pretreated for 1 hr followed by induced with LPS measured after 24 hrs by Western blot analysis; format: subcellular; settings: dose 2.5-10 µM, time 25.0 hrs
RAW264.7 [9] = assay: Inhibition of LPS-induced NFkappaB p65 translocation from cytosol to nucleus in mouse RAW264.7 cells at 2.5 to 10 uM pretreated for 1 hr followed by induced with LPS measured after 24 hrs by Western blot analysis; format: subcellular; settings: dose 2.5-10 µM, time 25.0 hrs
RAW264.7 [10] = assay: Anti-inflammatory activity against mouse RAW264.7 cells assessed as inhibition of LPS-induced COX2 level at 2.5 uM pretreated for 1 hr followed by induced with LPS measured after 24 hrs by ELISA (reference value: 95.38 pg/ml); format: functional; settings: time 25 hrs
[11] = target: c-Jun N-terminal kinase (Mus musculus) (UniProt Q91Y86+Q9WTU6+Q61831); assay: Inhibition of LPS-induced JNK phosphorylation in mouse RAW264.7 cells at 2.5 to 10 uM pretreated for 1 hr followed by induced with LPS measured after 24 hrs by Western blot analysis; format: cell-based; settings: dose 2.5-10 µM, time 25.0 hrs
Sequence of c-Jun N-terminal kinase (Mus musculus) (Q61831 whole entry, looked up): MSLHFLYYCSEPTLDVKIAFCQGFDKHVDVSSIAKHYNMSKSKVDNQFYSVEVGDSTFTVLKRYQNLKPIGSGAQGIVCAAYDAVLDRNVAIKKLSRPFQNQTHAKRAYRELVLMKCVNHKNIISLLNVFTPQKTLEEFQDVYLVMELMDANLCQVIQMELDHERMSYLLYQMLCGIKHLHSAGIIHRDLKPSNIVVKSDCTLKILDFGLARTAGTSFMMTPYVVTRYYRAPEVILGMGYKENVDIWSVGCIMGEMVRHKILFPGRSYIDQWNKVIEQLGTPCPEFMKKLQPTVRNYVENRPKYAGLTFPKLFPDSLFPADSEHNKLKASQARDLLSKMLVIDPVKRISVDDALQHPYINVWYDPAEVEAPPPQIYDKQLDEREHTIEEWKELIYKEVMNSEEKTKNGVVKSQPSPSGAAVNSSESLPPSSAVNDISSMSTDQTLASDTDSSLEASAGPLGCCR
Sequence of c-Jun N-terminal kinase (Mus musculus) (Q91Y86 whole entry, looked up): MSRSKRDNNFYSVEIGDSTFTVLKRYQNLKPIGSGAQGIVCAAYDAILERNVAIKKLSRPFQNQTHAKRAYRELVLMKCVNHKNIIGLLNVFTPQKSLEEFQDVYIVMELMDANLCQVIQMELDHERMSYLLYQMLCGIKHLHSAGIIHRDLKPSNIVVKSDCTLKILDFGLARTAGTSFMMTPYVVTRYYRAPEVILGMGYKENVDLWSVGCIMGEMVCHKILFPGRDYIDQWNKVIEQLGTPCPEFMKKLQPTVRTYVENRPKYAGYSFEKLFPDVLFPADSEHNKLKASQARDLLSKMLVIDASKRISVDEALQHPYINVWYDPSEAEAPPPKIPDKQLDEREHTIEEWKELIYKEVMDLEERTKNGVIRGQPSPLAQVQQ
Sequence of c-Jun N-terminal kinase (Mus musculus) (Q9WTU6 whole entry, looked up): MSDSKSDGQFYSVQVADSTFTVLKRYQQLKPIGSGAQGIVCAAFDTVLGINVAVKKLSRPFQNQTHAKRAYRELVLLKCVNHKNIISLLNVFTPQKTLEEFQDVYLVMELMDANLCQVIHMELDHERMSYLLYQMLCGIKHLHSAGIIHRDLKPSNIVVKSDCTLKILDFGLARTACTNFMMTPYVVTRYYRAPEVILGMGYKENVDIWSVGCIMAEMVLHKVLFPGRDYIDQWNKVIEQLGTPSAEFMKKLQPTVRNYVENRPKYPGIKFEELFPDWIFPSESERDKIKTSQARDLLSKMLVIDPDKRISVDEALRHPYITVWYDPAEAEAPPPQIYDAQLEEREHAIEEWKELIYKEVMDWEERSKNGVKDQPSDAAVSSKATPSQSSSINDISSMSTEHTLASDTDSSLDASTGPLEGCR

RAW264.7 [12] = assay: Inhibition of p38 MAPK protein level in LPS-induced mouse RAW264.7 cells at 2.5 to 10 uM pretreated for 1 hr followed by induced with LPS measured after 24 hrs by Western blot analysis; format: functional, cell-based; settings: dose 2.5-10 µM, time 25.0 hrs
RAW264.7 [13] = assay: Reduction in LPS-induced nuclear p65 level in mouse RAW264.7 cells at 2.5 to 10 uM pretreated for 1 hr followed by induced with LPS measured after 24 hrs by Western blot analysis; format: functional, cell-based; settings: dose 2.5-10 µM, time 25.0 hrs
RAW264.7 [14] = assay: Anti-inflammatory activity against mouse RAW264.7 cells assessed as inhibition of LPS-induced IL-6 mRNA level pretreated for 1 hr followed by induced with LPS measured after 6 hrs by quantitative RT-PCR analysis; format: functional, cell-based; settings: dose 2.5-20 µM, time 7.0 hrs
RAW264.7 [15] = assay: Anti-inflammatory activity against mouse RAW264.7 cells assessed as inhibition of LPS-induced iNOS level pretreated for 1 hr followed by induced with LPS measured after 24 hrs by Western blot analysis; format: functional, cell-based; settings: dose 2.5-10 µM, time 25.0 hrs
RAW264.7 [16] = assay: Anti-inflammatory activity against mouse RAW264.7 cells assessed as inhibition of LPS-induced TNFalpha level at 5 uM pretreated for 1 hr followed by induced with LPS measured after 24 hrs by ELISA (reference value: 0.61 ng/ml); format: functional; settings: time 25 hrs
RAW264.7 [17] = assay: Anti-inflammatory activity against mouse RAW264.7 cells assessed as inhibition of LPS-induced COX2 level at 10 uM pretreated for 1 hr followed by induced with LPS measured after 24 hrs by ELISA (reference value: 95.38 pg/ml); format: functional; settings: time 25 hrs
RAW264.7 [18] = assay: Anti-inflammatory activity against mouse RAW264.7 cells assessed as inhibition of LPS-induced TNFalpha mRNA level pretreated for 1 hr followed by induced with LPS measured after 6 hrs by quantitative RT-PCR analysis; format: functional, cell-based; settings: dose 2.5-20 µM, time 7.0 hrs
RAW264.7 [19] = assay: Anti-inflammatory activity against mouse RAW264.7 cells assessed as inhibition of LPS-induced TNFalpha level at 20 uM pretreated for 1 hr followed by induced with LPS measured after 24 hrs by ELISA (reference value: 0.61 ng/ml); format: functional; settings: time 25 hrs
RAW264.7 [20] = assay: Anti-inflammatory activity against mouse RAW264.7 cells assessed as inhibition of LPS-induced COX2 mRNA level pretreated for 1 hr followed by induced with LPS measured after 6 hrs by quantitative RT-PCR analysis; format: functional, cell-based; settings: dose 2.5-20 µM, time 7.0 hrs
RAW264.7 [21] = assay: Anti-inflammatory activity against mouse RAW264.7 cells assessed as inhibition of LPS-induced activation of NF-kappaB p65 by measuring phosphorylation pretreated for 1 hr followed by induced with LPS measured after 24 hrs by Western blot analysis; format: functional, cell-based; settings: dose 2.5-10 µM, time 25.0 hrs
RAW264.7 [22] = assay: Inhibition of LPS-induced ERK phosphorylation in mouse RAW264.7 cells at 2.5 to 10 uM pretreated for 1 hr followed by induced with LPS measured after 24 hrs by Western blot analysis; format: cell-based; settings: dose 2.5-10 µM, time 25.0 hrs
RAW264.7 [23] = assay: Anti-inflammatory activity against mouse RAW264.7 cells assessed as inhibition of LPS-induced COX2 level at 20 uM pretreated for 1 hr followed by induced with LPS measured after 24 hrs by ELISA (reference value: 95.38 pg/ml); format: functional; settings: time 25 hrs
RAW264.7 [24] = assay: Inhibition of JNK protein level in LPS-induced mouse RAW264.7 cells at 2.5 to 10 uM pretreated for 1 hr followed by induced with LPS measured after 24 hrs by Western blot analysis; format: functional, cell-based; settings: dose 2.5-10 µM, time 25.0 hrs
[25] = target: MAP kinase p38 (Mus musculus) (UniProt P47811+O08911+Q9WUI1+Q9Z1B7); assay: Inhibition of LPS-induced p38 MAPK phosphorylation in mouse RAW264.7 cells at 2.5 to 10 uM pretreated for 1 hr followed by induced with LPS measured after 24 hrs by Western blot analysis; format: cell-based; settings: dose 2.5-10 µM, time 25.0 hrs
RAW264.7 [26] = assay: Anti-inflammatory activity against mouse RAW264.7 cells assessed as inhibition of LPS-induced TNFalpha level at 10 uM pretreated for 1 hr followed by induced with LPS measured after 24 hrs by ELISA (reference value: 0.61 ng/ml); format: functional; settings: time 25 hrs
RAW264.7 [27] = assay: Inhibition of ERK protein level in LPS-induced mouse RAW264.7 cells at 2.5 to 10 uM pretreated for 1 hr followed by induced with LPS measured after 24 hrs by Western blot analysis; format: functional, cell-based; settings: dose 2.5-10 µM, time 25.0 hrs
RAW264.7 [28] = assay: Anti-inflammatory activity against mouse RAW264.7 cells assessed as inhibition of LPS-induced COX2 level at 5 uM pretreated for 1 hr followed by induced with LPS measured after 24 hrs by ELISA (reference value: 95.38 pg/ml); format: functional; settings: time 25 hrs
RAW264.7 [29] = assay: Anti-inflammatory activity against mouse RAW264.7 cells assessed as inhibition of LPS-induced iNOS mRNA level pretreated for 1 hr followed by induced with LPS measured after 6 hrs by quantitative RT-PCR analysis; format: functional, cell-based; settings: dose 2.5-20 µM, time 7.0 hrs

SMILES: Cc1ccc(C2CC([C@H]3CC[C@H]4[C@@H]5CC=C6C[C@@H](O)CC[C@]6(C)[C@H]5CC[C@]34C)=NN2C2=NC(=O)CS2)cc1 (stereo partly specified)
- viability at 24 h, 5 µM [1]: 88.5%
- inhibition at 5 µM (RAW264.7 [5]): 35.4%

SMILES: C[C@]12CC[C@H]3[C@@H](CC=C4C[C@@H](O)CC[C@@]43C)[C@@H]1CC[C@@H]2C1=NN(C2=NC(=O)CS2)C(c2cccc(Cl)c2)C1 (stereo partly specified)
- viability at 24 h, 5 µM [1]: 73.3%
- IC50 (RAW264.7 [3]): 5.14 µM
- inhibition at 5 µM (RAW264.7 [5]): 50.7%

SMILES: CCc1ccc(C2CC([C@H]3CC[C@H]4[C@@H]5CC=C6C[C@@H](O)CC[C@]6(C)[C@H]5CC[C@]34C)=NN2C2=NC(=O)CS2)cc1 (stereo partly specified)
- viability at 24 h, 5 µM [1]: 82.8%
- inhibition at 5 µM (RAW264.7 [5]): 39.9%

SMILES: C[C@]12CC[C@H]3[C@@H](CC=C4C[C@@H](O)CC[C@@]43C)[C@@H]1CC[C@@H]2C1=NN(C2=NC(=O)CS2)C(c2ccc(C#N)cc2)C1 (stereo partly specified)
- viability at 24 h, 5 µM [1]: 93.4%
- IC50 (RAW264.7 [3]): 6.89 µM
- inhibition at 5 µM (RAW264.7 [5]): 48.8%

Further lines, with some results ahead:

- IC50 (RAW264.7 [3]): 2.36 µM
SMILES: CCOc1ccc(C2CC([C@H]3CC[C@H]4[C@@H]5CC=C6C[C@@H](O)CC[C@]6(C)[C@H]5CC[C@]34C)=NN2C2=NC(=O)CS2)cc1 (stereo partly specified)
- viability at 24 h, 5 µM [1]: 87.7%
- inhibition (RAW264.7 [2]): Dose-Dependent Effect
- inhibition (RAW264.7 [4]): Dose-Dependent Effect
- inhibition at 5 µM (RAW264.7 [5]): 47.8%

- IC50 (RAW264.7 [3]): 4.24 µM
SMILES: C[C@]12CC[C@H]3[C@@H](CC=C4C[C@@H](O)CC[C@@]43C)[C@@H]1CC[C@@H]2C1=NN(C2=NC(=O)CS2)C(c2ccc(F)cc2)C1 (stereo partly specified)
- viability at 24 h, 5 µM [1]: 90.9%
- inhibition at 5 µM (RAW264.7 [5]): 44.7%

- IC50 (RAW264.7 [3]): 2.27 µM
SMILES: C[C@]12CC[C@H]3[C@@H](CC=C4C[C@@H](O)CC[C@@]43C)[C@@H]1CC[C@@H]2C1=NN(C2=NC(=O)CS2)C(c2ccc(Br)cc2)C1 (stereo partly specified)
- viability at 24 h, 5 µM [1]: 85.5%
- inhibition (RAW264.7 [2]): Dose-Dependent Effect
- inhibition (RAW264.7 [4]): Dose-Dependent Effect
- inhibition at 5 µM (RAW264.7 [5]): 45.4%

- IC50 (RAW264.7 [3]): 4.07 µM
SMILES: C[C@]12CC[C@H]3[C@@H](CC=C4C[C@@H](O)CC[C@@]43C)[C@@H]1CC[C@@H]2C1=NN(C2=NC(=O)CS2)C(c2ccc(Cl)cc2)C1 (stereo partly specified)
- viability at 24 h, 5 µM [1]: 85.1%
- inhibition at 5 µM (RAW264.7 [5]): 46.3%

- inhibition (RAW264.7 [8]): Active
- inhibition (RAW264.7 [9]): Active
- inhibition [11]: Active
- IC50 (RAW264.7 [3]): 2.34 µM
- inhibition [25]: Active
SMILES: C[C@]12CC[C@H]3[C@@H](CC=C4C[C@@H](O)CC[C@@]43C)[C@@H]1CC[C@@H]2C1=NN(C2=NC(=O)CS2)C(c2cccc(F)c2)C1 (stereo partly specified)
- inhibition (RAW264.7 [6]): Dose-Dependent Effect
- Activity (RAW264.7 [7]): 0.51 ng/mL
- inhibition (BV-2): Active
- Activity (RAW264.7 [10]): 0.0824 ng/mL
- viability at 24 h, 5 µM [1]: 97.4%
- Activity (RAW264.7 [12]): inactive
- inhibition (RAW264.7 [13]): Active
- inhibition (RAW264.7 [2]): Dose-Dependent Effect
- inhibition (RAW264.7 [14]): Dose-Dependent Effect
- inhibition (RAW264.7 [15]): Dose-Dependent Effect
- Activity (RAW264.7 [16]): 0.42 ng/mL
- Activity (RAW264.7 [17]): 0.0428 ng/mL
- inhibition (RAW264.7 [18]): Dose-Dependent Effect
- Activity (RAW264.7 [19]): 0.3 ng/mL
- inhibition (RAW264.7 [20]): Dose-Dependent Effect
- inhibition (RAW264.7 [21]): Dose-Dependent Effect
- inhibition (RAW264.7 [22]): Active
- Activity (RAW264.7 [23]): 0.0378 ng/mL
- inhibition (RAW264.7 [4]): Dose-Dependent Effect
- Activity (RAW264.7 [24]): inactive
- Activity (RAW264.7 [26]): 0.33 ng/mL
- inhibition (RAW264.7 [27]): inactive
- Activity (RAW264.7 [28]): 0.0624 ng/mL
- inhibition (RAW264.7 [29]): Dose-Dependent Effect
- inhibition at 5 µM (RAW264.7 [5]): 45.4%

Source: ChEMBL document CHEMBL5500377, “Design, synthesis and molecular modeling of novel D-ring substituted steroidal 4,5-dihydropyrazole thiazolinone derivatives as anti-inflammatory agents by inhibition of COX-2/iNOS production and down-regulation of NF-κB/MAPKs in LPS-induced RAW264.7 macrophage cells” (Eur J Med Chem, 2024)
